Data as given in patent publication US8394776B2, “Use of ursolic acid saponin,oleanolic acid saponin in preparation of increasing leucocytes and/or platelet medicine” (Chengdu Di'Ao Jiuhong Pharmaceutical Factor, priority 2007, dated 2013).
Marks after values point to notes of the source that are not given here.

Key:
leucocytes = details: administrated through abdominal cavity; 25, 50 and 100 mg/kg; effect obvious at high dose; cited from earlier work
leukocytes (WBC) = test: Cyclophosphamide-induced leukopenia in mice: leukocytes (WBC); format: in vivo, Kunming mice; details: 0.8 mg/kg; for leukocytes (WBC), Day1 after modeling: CY 100 mg/kg x 3 days
Description: (§1) Further, in vivo experiments were carried out on the compounds involved in the present invention using animal models of cyclophosphamide-induced leukopenia in mice. Experimental methods are briefed as follows: Healthy Kunming mice, of which half were male and the other half were female, were divided into groups, each group incuding 18 mice, and those mice weighing 18-22 g were selected and divided into groups randomly according to their body weights. Each group was given a different drug, wherein the negative control group and model control group were given physiological saline of the same volume, and the positive control group was treated with granulocyte colony-stimulating factors 40 μg/kg through subcutaneous injection (injection volume: 0.1 ml/10 g). After administration for 3 days, except the negative control group, other treatment groups were treated with 100 mg/kg cyclophosphamide (CY) through lumbar injection once a day for three days to cause a decrease of leukocytes in mice. A drop of blood (20 μl) was taken from posterior orbital venous plexus to detect the hemogram to observe the situation of leukocytes and platelets on day 1, day 3 and/or day 5 after the final lumbar injection of cyclophosphamide (i.e day 1, day 3 and/or day 5 after modeling) (Note: Each treatment group was administrated incessantly). The mice were killed on day 5 after the final lumbar injection of cyclophosphamide (i.e day 5 after modeling), and the leukocytes (WBC) and platelets (PLT) of the hemogram index were counted.
This experiment mainly studies the effect of G-1, G-6 and G-8 of ursolic acid saponin in increasing leukocytes, and compares the therapeutic effects of aglycon of ursolic acid and oleanolic acid and of the compound G-22 which has been disclosed by a patent.
(§2) The purpose of this experiment is to study the effect of G-1, G-3, G-11 and G-12 of ursolic acid saponin and oleanolic acid saponin in increasing platelets, and to observe whether G-11 and G-12 of oleanolic acid saponin have an effect in increasing leukocytes.

[1] = tested on: bone marrow mononuclear cell (BMMNC); test: Monocytic proliferation in bone marrow of mice cultured in vitro (SRB method); format: cell-based, KunMing mice; details: 1 μg/ml; cultured 5 days; versus blank control
From the text: 15-20 KunMing mice (purchased from Laboratory Animal Center of Zhengzhou University, Henan) of either sex were killed by cervical vertebral dislocation. Bilateral thighbones were isolated and caput femoris was cut off. The marrow was washed repeatedly with serum-free RPMI1640 (Gibco Corp.), the wash solution containing marrow cells was collected, sucked and blew repeatedly with a pipette to make the cells disperse. After standing for a moment, the supernatant was sucked up and centrifugated at 100 g for 3 min to collect the cell pellet. The cells were resuspended in a culture media and brought to a volume of 5 ml. The cell suspension was added to the upper layer of a centrifugal tube containing 5 ml of a lymphocyte separation medium of mice and centrifugated at 400 g for 30 min. The milk-white bone marrow mononuclear cell (BMMNC) layer in the middle of the interface was collected and washed with serum-free medium RPMI1640 for three times to obtain a BMMNC suspension, which was inoculated into a 96-well plate at forty thousand per well after counting. Positive drugs rhG-CSF (recombinant granulocyte colony-stimulating factor, manufactured by QI LU Pharmaceutical Co., LTD., Shandong) or test samples of different concentrations were added, and meanwhile a blank control group without drug was established. They were cultured in a 5% CO2 incubator at 37 for 5 days. Cell proliferation was measured by a conventional SRB (Sigma) method in which OD at 490 nm was measured after being dyed with SRB. The growth rates of cell proliferation after drug treatment were calculated (Growth rate of cell proliferation=experimental group-blank control group/blank control group*100%).

WBC = test: 60Co-γ-induced leukopenia in mice: WBC; format: in vivo, Kunming mice
From the text: In order to illustrate the present invention in detail, with a model induced by ^60Co-γ rays, the effects of G-1 and G-22 on leukocytes of chemotherapy-induced-leukopenia mice were compared. The specific operation and the results are as follows.
Healthy Kunming mice, of which half were male and the other half were female, were divided into 6 groups randomly, with 17-18 in each group. Blood was taken from caudal vein to determine the normal hemogram (leucocyte, erythrocyte, platelet and hemoglobin), and adjustments were made according to body weights and hemogram results. The normal control group and model group were given isometric physiological saline once a day for 7 days, and then the post-radiation hemogram was determined. Except the normal control group, other groups were each subjected to a whole body exposure to ^60Co-γ rays at a total dose of 3.0 Gy to prepare the models of leukopenia in mice, followed by further administration for 14 days. The G-CSF group was adminitrated through subcutaneous injection for 5 days from the irradiation day on and the hemogram was determined by taking blood respectively on day 3, day 7 and day 14 after irradiation.

erythrocytes = test: Comparison of hemolytic activities (HD50); format: cell-based, rabbit
Description: The test samples were dissolved in DMSO/physiological saline (1:4) as a solvent to generate the tested concentration gradients of 40, 80, 120, 160, 200 μg/ml. Blood (25 ml) was taken from a rabbit heart, poured into an erlenmeyer flask containing glass beads and shook gently for 10 min to remove fibrinogen so as to convert the blood into defidrinated blood. The resultant blood was transferred into a graduation centrifugal tube. About 10 times physiological saline was added, shook up and centrifuged at 2000 r/min for 5 minutes. The supernatant was removed, and the precipitated erythrocytes were washed with physiological saline again by the above method for 4 times until the supernatant was colorless and transparent. The resulant erythrocytes were prepared into a 10% suspension using physiological saline for testing. 250 μl of the 10% erythrocyte suspension was added into 2.5 ml of a tested sample, solvent (blank control) or distilled water (positive control), mixed thoroughly, and immediately placed in a thermotank maintained at 37° C. for incubation; and it was taken out 1 hour later and centrifuged at 3000 r/min for 5 minutes. The supernatant was taken for determining the OD value at 540 nm with a spectrophotometer. Hemolysis (Hemolysis Percentage)=(absorbance of sample−absorbance of blank control)×100%÷(absorbance of positive control-absorbance of blank control); and the data processing was performed by SPSS13.0 statistical software with drug concentration as an independent variable X and hemolysis as a dependent variable Y to obtain a linear regression equation; then, the drug concentration causing 50% hemolysis, i.e HD50, was calculated according to the equation. A P-value <0.05 was considered statistically significant.

platelets (PLT) = test: Cyclophosphamide-induced leukopenia in mice: platelets (PLT); format: in vivo, Kunming mice; details: Experimental Example 3, 0.8 mg/kg
Description: as §1, §2

[2] = 0.80 mg/kg i.g., 3.0 Gy whole body

SMILES: CC1(C)CC[C@]2(C(=O)O)CC[C@]3(C)C(=CC[C@@H]4[C@@]5(C)CC[C@H](O)C(C)(C)[C@@H]5CC[C@]43C)[C@@H]2C1 [Sample G-20, oleanolic acid]
- effect in increasing leucocytes (in words) (leucocytes): effective in increasing leucocytes
- effect in increasing leukocytes (in words) (leukocytes (WBC); Experimental Example 2): no obvious effect in increasing leukocytes
- leukocytes (WBC), Day 3 after modeling (leukocytes (WBC); Experimental Example 2): 3.88 ± 2.01
- leukocytes (WBC), Day 5 after modeling (leukocytes (WBC); Experimental Example 2): 7.00 ± 3.22
- leukocytes (WBC), Day1 after modeling (leukocytes (WBC); Experimental Example 2): 0.99 ± 0.40
- Growth Rate of Proliferation %, 1 μg/ml [1]: 4.5%

SMILES: C[C@H]1[C@H](C)CC[C@]2(C(=O)O)CC[C@]3(C)C(=CC[C@@H]4[C@@]5(C)CC[C@H](O)C(C)(C)[C@@H]5CC[C@]43C)[C@H]12 [Sample G-21, ursolic acid]
- effect in increasing leucocytes (in words) (leucocytes): effective in increasing leucocytes
- effect in increasing leukocytes (in words) (leukocytes (WBC); Experimental Example 2): no obvious effect in increasing leukocytes
- leukocytes (WBC), Day 3 after modeling (leukocytes (WBC); Experimental Example 2): 3.94 ± 1.73
- leukocytes (WBC), Day 5 after modeling (leukocytes (WBC); Experimental Example 2): 7.07 ± 3.14
- leukocytes (WBC), Day1 after modeling (leukocytes (WBC); Experimental Example 2): 1.01 ± 0.47
- Growth Rate of Proliferation %, 1 μg/ml [1]: 7.9%

SMILES: C[C@H]1[C@H](C)CC[C@]2(C(=O)O[C@@H]3OC[C@H](O)[C@H](O)[C@H]3O)CC[C@]3(C)C(=CC[C@@H]4[C@@]5(C)CC[C@H](O[C@@H]6OC[C@H](O)[C@H](O)[C@H]6O)C(C)(C)[C@@H]5CC[C@]43C)[C@H]12 [Sample G-1, 3-O-(α-L-arabopyranosyl) ursolic acid-28-O-(α-L-arabopyranosyl) ester]
- effect on leucocyte count of leukopenia mice (in words) (WBC; 0.80 mg/kg gastric perfusion, versus model group, day 7 and day 14 after irradiation): increased obviously
- WBC, 1 week after administration (WBC; 0.80 mg/kg i.g. once a day for 7 days, before irradiation): 9.21 ± 2.16 109/L
- WBC, Day 3 after irradiation (WBC; [2]): 2.06 ± 0.75 109/L
- WBC, Day 7 after irradiation (WBC; [2]): 4.59 ± 1.52** 109/L
- WBC, Day 14 after irradiation (WBC; [2]): 6.37 ± 1.54** 109/L
- WBC, Normal (WBC; normal hemogram before administration (baseline), 0.80 mg/kg i.g. group): 8.96 ± 1.58 109/L
- HD50 (drug concentration causing 50% hemolysis) (erythrocytes; 10% rabbit erythrocyte suspension, 37° C., 1 hour, from linear regression over 40-200 μg/ml): 345 µg/mL
- tendency to cause hemolysis (in words) (erythrocytes; comparison among G-1, G-3, G-6, G-8): the most difficult to cause hemolysis
- leukocytes (WBC), Day 3 after modeling (leukocytes (WBC); Experimental Example 2): 7.85 ± 3.00**★★
- leukocytes (WBC), Day 5 after modeling (leukocytes (WBC); Experimental Example 2): 15.46 ± 10.44
- leukocytes (WBC), Day1 after modeling (leukocytes (WBC); Experimental Example 2): 1.14 ± 0.56Δ
- difference in increasing leukocytes compared with G-22 (in words) (leukocytes (WBC); Experimental Example 2, especially on day 3 after modeling): obvious difference in increasing leukocytes
- effect in increasing leukocytes (in words) (leukocytes (WBC); Experimental Example 3): obvious effect in increasing leukocytes and platelets
- leukocytes, Day 1 after modeling (leukocytes (WBC); Experimental Example 3): 0.98 ± 0.55
- leukocytes, Day 5 after modeling (leukocytes (WBC); Experimental Example 3): 9.33 ± 5.17
- difference in increasing leukocytes compared with G-22 (in words) (leukocytes (WBC); Experimental Example 3, day 5 after modeling): significant difference in increasing leukocytes and platelets
- effect in increasing platelets (in words) (platelets (PLT)): obvious effect in increasing leukocytes and platelets
- platelets, Day 1 after modelng (platelets (PLT)): 504.67 ± 117.81
- platelets, Day 5 after modeling (platelets (PLT)): 413.00 ± 218.95*★★
- difference in increasing platelets compared with G-22 (in words) (platelets (PLT); day 5 after modeling): significant difference in increasing leukocytes and platelets
- Growth Rate of Proliferation %, 1 μg/ml [1]: 31.3%
